Data set [1] is described as follows: Inhibition of CoQ-CoQH2 aberrant metabolite formation during red-ox recycling, HPLC. It is filed as physicochemical. Conditions: in vitro. How it is done:
Methanolic solution of coenzyme Q10 (1 mg/ml) was reduced by NaBH4 to pH 8 when the yellow solution became colorless. About 1 mg of 3,8-(OH)2-DBP was added to the solution and the mixture was analyzed by HPLC at different time intervals (0-80 min). A control CoQ10, without 3,8-(OH)2-DBP, was prepared similarly and analyzed at different time intervals (0-80 min).
Column—NovaPak RP C18 [250×4 mm]
Mobile phase—Methanol:Acetonitrile:Ethanol 30:30:40
Detection—PDA 275 nm for CoQ10
Reduced CoQ10 (CoQH2) has a tendency to rapidly autoxidize in the presence of air. […] The aberrant metabolites increased rapidly with time (Table 10).

The test system of data set [2] is stress-induced lipid peroxidation of mouse brain. The data set can be described thus: Stress-induced lipid peroxidation of mouse brain (thiobarbituric acid reaction). As to conditions: oral each 5 mg/Kg b.w. per day for 5 days, hypoxic stress, control 1.169. The format is in vivo, Swiss albino mice. The protocol: Swiss albino mice (20±g) were fed orally with—(a) 3,8-(OH)2-DBP; (b) CoQ10; (c) a combination of 3,8-(OH)2-DBP and CoQ10 and (d) 3,8-(OH)2-DBP and CoQ10 in a clathrated form with fusoms (each 5 mg/Kg b.w.), per day, for 5 days. The animals were subjected to hypoxic stress for 1 hour each day for 3 days from the 3rd day of the experiment. After the stipulated time-period, brain and liver of the animals were collected and mitochondria from the liver were separated as described previously (Liu Y, Deng F, Zhao R and Qu S, Chemosphere, 40(8):851-854, 2000). Lipid peroxidation in brain and liver-mitochondria was estimated by the method of Ohkawa et al. (Ohkawa H, Ohishi N and Yagi K, Assay for lipid peroxides in animal tissues by thiobarbituric acid reaction. Anal. Biochem., 95:351-358, 1979).

For `O=c1oc2cc(O)ccc2c2ccc(O)cc12` [3,8-(OH)2-DBP, 3,8-dihydroxydibenzo-α-pyrone], the “aberrant metabolite formation of CoQH2 in the presence of 3,8-(OH)2-DBP, in words” value in data set [1] is “did not form any aberrant metabolite for a long time”. For the same compound, the “Relative percentage of aberrant metabolites in presence of 3,8-(OH)2-DBP” value in data set [1] (pH 8, 0 minutes) is listed as 0%; in data set [1] (pH 8, 40 minutes), 0%; in data set [1] (pH 8, 80 minutes), 0%. The “OD Values at 532 nm (lipid peroxidation)” value in data set [2] was 1.119.

The values above are taken from patent publication US8894993B2, “Mitochondria-targeted antioxidants” (Natreon Inc., priority 2006, dated 2014).
